Assay [1] deals with ERα in MCF7 cells (Homo sapiens (Human), UniProt P03372). The assay is described as follows: Test C: estrogen receptor degradation activity, ERα in cell western assay in MCF7 cells. The format is cell-based. Particulars: for DC50: 4 hours post compound addition, ERα in cell western, read-out: Degradation IC50; for % Degradation at 3 μM: 4 hours, relative to fulvestrant. The method, boiled down: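 In-cell western: ERα level (green) against DNA stain Syto-64 (red) by integrated intensity. MCF7 cells in hormone-depleted medium exposed 4 h to compound at 3-0.000018 μM final (1:5 series); fulvestrant 0.1 μM as positive control.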

Assay [2] relates to MCF7 cells (breast tumor cells) WT. The assay is described as follows: Test B: cell proliferation/viability assay (CellTiter-Glo) on MCF7 WT. The format is cell-based. Particulars: Homo sapiens, MCF7, 168 h, 7 days of compound exposure. The method, boiled down: (§1)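 Seven-day compound exposure, 9 concentrations from 3 to 0.000001 μM, in phenol red-free medium with 5% charcoal-stripped serum. ER Tyr537Ser and Asp538Gly lines derive from transfected MCF7 selected to grow without estradiol. Viability from CellTiter-Glo luminescence, background-corrected, as percent of untreated.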
(In general: In ATP-based viability assays light output follows the ATP content of the culture.)

The subject of assay [3] is MCF7 cells expressing mutant estrogen receptor Tyr 537 Ser. Nature of the assay: Test B: cell proliferation/viability assay (CellTiter-Glo) on MCF7 Tyr 537 Ser mutant. The format is cell-based. The note with it: Homo sapiens, MCF7, 168 h, MCF7 cells expressing ER Tyr 537 Ser mutant, 7 days of compound exposure, read-out: proliferation MCF7 Y537S IC50. Summed up:
as §1

Assay [4] addresses His6-ERα298-554 Y537S mutant (ERα ligand-binding domain) (Homo sapiens (Human), UniProt P03372, Y537S). The assay is described as follows: Test A: biochemical antagonist activity, LanthaScreen TR-FRET ERα coactivator assay, Y537S mutant. The note with it: protocol with 3 nM estradiol; read-out: Antagonism Y537S IC50. The method, boiled down:
(§2)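 TR-FRET 520:495 nm emission ratio read after overnight room-temperature incubation; IC50 derived by 4-parameter logistic fit. Mix: 0.5 nM receptor LBD, 0.5 nM Tb-His6 antibody, 250 nM PGC1a peptide, 3 nM or 10 nM estradiol, pH 7.4 phosphate buffer.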

Assay [5] deals with MCF7 cells expressing mutant estrogen receptor Asp 538 Gly. The assay is described as follows: Test B: cell proliferation/viability assay (CellTiter-Glo) on MCF7 Asp 538 Gly mutant. The format is cell-based. The note with it: Homo sapiens, MCF7, 168 h, MCF7 cells expressing ER Asp 538 Gly mutant, 7 days of compound exposure, read-out: proliferation MCF7 D538G IC50. The method, boiled down: as §1

Assay [6] has as its target His6-ERα298-554 WT (ERα ligand-binding domain) (Homo sapiens (Human), UniProt P03372). The assay is described as follows: Test A: biochemical antagonist activity, LanthaScreen TR-FRET ERα coactivator assay, WT. Particulars: protocol with 3 nM estradiol; read-out: Antagonism WT IC50. The method, boiled down:
as §2

For assay [7], the target named is His6-ERα298-554 D538G mutant (ERα ligand-binding domain) (Homo sapiens (Human), UniProt P03372, D538G). The assay is described as follows: Test A: biochemical antagonist activity, LanthaScreen TR-FRET ERα coactivator assay, D538G mutant. Particulars: protocol with 3 nM estradiol; read-out: Antagonism D538G IC50. Summed up: as §2

Here are results for 14 molecules from patent publication US11149031B2, “Substituted N-(3-fluoropropyl)-pyrrolidine compounds, processes for their preparation and therapeutic uses thereof” (SANOFI, priority 2016, dated 2021).

Sequence of ERα in MCF7 cells (P03372 whole entry): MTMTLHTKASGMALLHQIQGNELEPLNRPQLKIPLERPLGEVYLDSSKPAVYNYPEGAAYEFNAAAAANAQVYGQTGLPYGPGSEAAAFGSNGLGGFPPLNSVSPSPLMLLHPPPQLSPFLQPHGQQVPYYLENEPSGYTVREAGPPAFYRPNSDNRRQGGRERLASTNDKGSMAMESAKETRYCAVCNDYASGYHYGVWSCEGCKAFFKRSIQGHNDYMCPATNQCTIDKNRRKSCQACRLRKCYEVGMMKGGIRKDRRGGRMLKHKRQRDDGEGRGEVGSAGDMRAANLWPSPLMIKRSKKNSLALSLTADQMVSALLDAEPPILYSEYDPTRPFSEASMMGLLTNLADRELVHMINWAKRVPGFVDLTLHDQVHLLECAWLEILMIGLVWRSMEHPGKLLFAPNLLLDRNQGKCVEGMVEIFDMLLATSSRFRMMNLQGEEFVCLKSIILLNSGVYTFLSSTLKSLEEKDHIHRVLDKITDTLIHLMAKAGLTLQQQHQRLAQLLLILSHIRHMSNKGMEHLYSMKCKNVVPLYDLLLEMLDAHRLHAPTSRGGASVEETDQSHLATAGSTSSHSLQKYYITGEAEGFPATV
Sequence of His6-ERα298-554 WT (ERα ligand-binding domain) (P03372 298-554): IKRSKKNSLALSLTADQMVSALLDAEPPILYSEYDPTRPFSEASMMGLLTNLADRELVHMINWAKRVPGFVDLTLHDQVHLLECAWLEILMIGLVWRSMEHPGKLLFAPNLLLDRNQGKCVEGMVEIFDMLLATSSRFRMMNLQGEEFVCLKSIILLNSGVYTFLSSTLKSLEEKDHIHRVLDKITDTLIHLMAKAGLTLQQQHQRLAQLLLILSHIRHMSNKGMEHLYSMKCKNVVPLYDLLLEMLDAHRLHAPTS
Sequence of His6-ERα298-554 Y537S mutant (ERα ligand-binding domain) (P03372 298-554 Y537S): as the sequence (P03372 298-554) above, with Y240S counted along it
Sequence of His6-ERα298-554 D538G mutant (ERα ligand-binding domain) (P03372 298-554 D538G): as the sequence (P03372 298-554) above, with D241G counted along it

As for `Oc1ccc2c(c1)OCCC(c1cccc3[nH]ccc13)=C2c1ccc(O[C@H]2CCN(CCCF)C2)cc1` [Example 110, 5-[4-[(3S)-1-(3-fluoropropyl)pyrrolidin-3-yl]oxyphenyl]-4-(1H-indol-4-yl)-2,3-dihydro-1-benzoxepin-8-ol], in assay [1], the DC50 worked out at 0.0002 µM. The “% Degradation at 3 μM” value in assay [1] is on record as 87%. Also, the IC50 in assay [2] is 0.001 µM; in assay [3] it was 0.045 µM; in assay [4] it was 0.026 µM; in assay [5] it was 0.006 µM; in assay [6] it was 0.005 µM; in assay [7], 0.039 µM.

Take `Oc1ccc2c(c1F)OCCC(c1ccc3[nH]ccc3c1)=C2c1ccc(O[C@H]2CCN(CCCF)C2)cc1` [Example 113, 9-fluoro-5-[4-[(3S)-1-(3-fluoropropyl)pyrrolidin-3-yl]oxyphenyl]-4-(1H-indol-5-yl)-2,3-dihydro-1-benzoxepin-8-ol]: the DC50 in assay [1] stood at 0.0007 µM. Moreover, the “% Degradation at 3 μM” value in assay [1] is recorded as 80%. Moreover, the IC50 in assay [2] is 0.005 µM; in assay [3], 0.031 µM; in assay [4] it was 0.019 µM; in assay [5], 0.014 µM; in assay [6], 0.006 µM; in assay [7], 0.032 µM.

`Oc1ccc2c(c1)OCCC(c1ccc3c(c1)NCC3)=C2c1ccc(O[C@H]2CCN(CCCF)C2)cc1` [Example 116, 5-[4-[(3S)-1-(3-fluoropropyl)pyrrolidin-3-yl]oxyphenyl]-4-indolin-6-yl-2,3-dihydro-1-benzoxepin-8-ol]: the DC50 in assay [1] came to 0.002 µM. In addition, the “% Degradation at 3 μM” value in assay [1] came to 88%. Besides, the IC50 is 0.006 µM in assay [2]; 0.15 µM in assay [3]; 0.086 µM in assay [4]; 0.017 µM in assay [5]; 0.031 µM in assay [6]; 0.12 µM in assay [7].

Take `CCOc1ccc(C2=C(c3ccc(O[C@H]4CCN(CCCF)C4)cc3)c3ccc(O)cc3OCC2)c(C)c1` [Example 119, 4-(4-ethoxy-2-methyl-phenyl)-5-[4-[(3S)-1-(3-fluoropropyl)pyrrolidin-3-yl]oxyphenyl]-2,3-dihydro-1-benzoxepin-8-ol]: the DC50 in assay [1] came to 0.001 µM. Besides, the “% Degradation at 3 μM” value in assay [1] is given as 91%. Moreover, the IC50 in assay [2] was 0.0006 µM; in assay [3], 0.005 µM; in assay [4], 0.006 µM; in assay [5], 0.0005 µM; in assay [6] it was 0.002 µM; in assay [7], 0.01 µM.

For `Oc1ccc2c(c1)OCCC(c1ccc3occc3c1)=C2c1ccc(O[C@H]2CCN(CCCF)C2)cc1` [Example 120, 4-(benzofuran-5-yl)-5-[4-[(3S)-1-(3-fluoropropyl)pyrrolidin-3-yl]oxyphenyl]-2,3-dihydro-1-benzoxepin-8-ol], the DC50 in assay [1] turned out to be 0.0007 µM. For the same molecule, the “% Degradation at 3 μM” value in assay [1] was determined as 91%. Further, the IC50 in assay [2] was found to be 0.001 µM; in assay [3] it was 0.01 µM; in assay [4] it was 0.004 µM; in assay [5], 0.002 µM; in assay [6], 0.002 µM; in assay [7] it was 0.007 µM.

`COc1ccc(C2=C(c3ccc(O[C@H]4CCN(CCCF)C4)cc3)c3ccc(O)cc3OCC2)c(F)c1` [Example 121, 4-(2-fluoro-4-methoxy-phenyl)-5-[4-[(3S)-1-(3-fluoropropyl)pyrrolidin-3-yl]oxyphenyl]-2,3-dihydro-1-benzoxepin-8-ol]: the DC50 in assay [1] amounted to 0.0002 µM. In addition, in assay [1], the “% Degradation at 3 μM” value was 90%. The IC50 in assay [2] came to 0.0003 µM; in assay [3], 0.003 µM; in assay [4] it was 0.013 µM; in assay [5] it was 0.001 µM; in assay [6] it was 0.002 µM; in assay [7] it was 0.027 µM.

Consider `Oc1ccc2c(c1Cl)OCCC(c1cccc3[nH]ccc13)=C2c1ccc(O[C@H]2CCN(CCCF)C2)cc1` [Example 124, 9-chloro-5-[4-[(3S)-1-(3-fluoropropyl)pyrrolidin-3-yl]oxyphenyl]-4-(1H-indol-4-yl)-2,3-dihydro-1-benzoxepin-8-ol], for which the DC50 in assay [1] was 0.005 µM. Also, the “% Degradation at 3 μM” value in assay [1] is listed as 76%. Also, the IC50 in assay [2] came to 0.008 µM; in assay [3], 0.165 µM; in assay [4], 1.24 µM; in assay [5], 0.033 µM; in assay [6], 0.022 µM; in assay [7] it was 0.849 µM.

For the molecule `Cc1c(O)ccc2c1OCCC(c1ccc3cc[nH]c3c1)=C2c1ccc(O[C@H]2CCN(CCCF)C2)cc1` [Example 129, 5-[4-[(3S)-1-(3-fluoropropyl)pyrrolidin-3-yl]oxyphenyl]-4-(1H-indol-6-yl)-9-methyl-2,3-dihydro-1-benzoxepin-8-ol], the DC50 in assay [1] amounted to 0.044 µM. Also, in assay [1], the “% Degradation at 3 μM” value came out at 75%. Further, the IC50 in assay [2] is 0.245 µM; in assay [3], over 0.999 µM; in assay [4], 2.68 µM; in assay [5], 0.456 µM; in assay [6] it was 0.502 µM; in assay [7], over 4 µM.

For `Cc1ccc(C2=C(c3ccc(O[C@H]4CCN(CCCF)C4)cc3)c3cc(F)c(O)cc3OCC2)c(F)c1` [Example 138, 7-fluoro-4-(2-fluoro-4-methyl-phenyl)-5-[4-[(3S)-1-(3-fluoropropyl)pyrrolidin-3-yl]oxyphenyl]-2,3-dihydro-1-benzoxepin-8-ol], in assay [1], the DC50 was 0.0005 µM. In addition, the “% Degradation at 3 μM” value in assay [1] is given as 89%. The IC50 in assay [2] was determined as 0.002 µM; in assay [3] it was 0.051 µM; in assay [4] it was 0.253 µM; in assay [5], 0.007 µM; in assay [6], 0.018 µM; in assay [7] it was 0.36 µM.

As for `CC(C)Oc1ccc(C2=C(c3ccc(O[C@H]4CCN(CCCF)C4)cc3)c3ccc(O)cc3OCC2)cc1F` [Example 141, 4-(3-fluoro-4-isopropoxy-phenyl)-5-[4-[(3S)-1-(3-fluoropropyl)pyrrolidin-3-yl]oxyphenyl]-2,3-dihydro-1-benzoxepin-8-ol], in assay [1], the DC50 was 0.002 µM. Moreover, the “% Degradation at 3 μM” value in assay [1] is reported as 87%. The IC50 in assay [2] was found to be 0.001 µM; in assay [3] it was 0.022 µM; in assay [4], 1.12 µM; in assay [5], 0.004 µM; in assay [6], 0.023 µM; in assay [7], 1.5 µM.

Regarding `Oc1cc2c(cc1F)C(c1ccc(O[C@H]3CCN(CCCF)C3)cc1)=C(c1ccc3c(c1)CCN3)CCO2` [Example 142, 7-fluoro-5-[4-[(3S)-1-(3-fluoropropyl)pyrrolidin-3-yl]oxyphenyl]-4-indolin-5-yl-2,3-dihydro-1-benzoxepin-8-ol], the DC50 in assay [1] stood at 0.002 µM. Moreover, the “% Degradation at 3 μM” value in assay [1] amounted to 83%. For the same molecule, the IC50 in assay [2] came to 0.008 µM; in assay [3], 0.154 µM; in assay [4], 1.15 µM; in assay [5], 0.034 µM; in assay [6], 0.041 µM; in assay [7] it was 1.82 µM.

As for `Oc1cc2c(cc1Cl)C(c1ccc(O[C@H]3CCN(CCCF)C3)cc1)=C(c1ccc3c(c1)CCN3)CCO2` [Example 143, 7-chloro-5-[4-[(3S)-1-(3-fluoropropyl)pyrrolidin-3-yl]oxyphenyl]-4-indolin-5-yl-2,3-dihydro-1-benzoxepin-8-ol], the DC50 in assay [1] was 0.014 µM. The “% Degradation at 3 μM” value in assay [1] is on record as 74%. Also, the IC50 stood at 0.024 µM in assay [2]; 0.357 µM in assay [3]; 4 µM in assay [4]; 0.063 µM in assay [5]; 0.464 µM in assay [6]; 4 µM in assay [7].

Consider `Oc1cc2c(cc1Cl)C(c1ccc(O[C@H]3CCN(CCCF)C3)cc1)=C(c1ccc3[nH]ccc3c1)CCO2` [Example 144, 7-chloro-5-[4-[(3S)-1-(3-fluoropropyl)pyrrolidin-3-yl]oxyphenyl]-4-(1H-indol-5-yl)-2,3-dihydro-1-benzoxepin-8-ol], for which, in assay [1], the DC50 worked out at 0.018 µM. For the same molecule, in assay [1], the “% Degradation at 3 μM” value is 75%. Further, the IC50 in assay [2] was determined as 0.038 µM; in assay [3], 0.653 µM; in assay [4], 4 µM; in assay [5] it was 0.064 µM; in assay [6], 0.528 µM; in assay [7], 4 µM.

As to `Cc1ccc(C2=C(c3ccc(O[C@H]4CCN(CCCF)C4)cc3)c3cc(Cl)c(O)cc3OCC2)c(F)c1` [Example 145, 7-chloro-4-(2-fluoro-4-methyl-phenyl)-5-[4-[(3S)-1-(3-fluoropropyl)pyrrolidin-3-yl]oxyphenyl]-2,3-dihydro-1-benzoxepin-8-ol], the DC50 in assay [1] was 0.0005 µM. In addition, the “% Degradation at 3 μM” value in assay [1] amounted to 82%. Besides, the IC50 was 0.009 µM in assay [2]; 0.124 µM in assay [3]; 3.27 µM in assay [4]; 0.017 µM in assay [5]; 0.256 µM in assay [6]; 4 µM in assay [7].
